Where only a bound is given, the exact number is not on record here.

We go through nine compounds from patent US20060241114A1, “Derivatives of azasugars as anticancer agents” (priority 2003, published 2006).

For experiment [1], the system named is MCF7ADR (adriamycin resistant breast adenocarcinoma). In words: In vitro growth inhibition screen (sulphorhodamine B), MCF7ADR. The class given is cell-based, human. As to conditions: MCF7ADR cells, incubated for 48 hours, sulphorhodamine B dye; read-out: GI50 (concentration which inhibits the cell growth by 50%), MCF7ADR Adriamycin Resistant Breast adenocarcinoma. On the procedure:
(§1) Each agent was tested over a broad concentration range (ten-fold dilutions starting from ≧100 μM to 10 nM) against 6 human cancer cell lines which was comprised of different tumor types. These are DU145 (prostate carcinoma), HT29 (colorectal adenocarcinoma), LOX (melanoma), MCF7 (breast adenocarcinoma), MCF7ADR (adriamycin resistant breast adenocarcinoma), and U251 (human glioblastoma). A standard compound doxorubicin was tested in each assay as a positive control. The cells were maintained in growing condition in RPMI 1640 medium containing 10% fetal calf serum and incubated at 37° C. under 5% CO2 atmosphere. All cell lines were inoculated onto a series of standard 96-well microtitre plate on day zero, followed by twenty four-hour incubation in the absence of test compound. The inoculation densities in the screen were as per Monk et al., (1991) J. Natl. Cancer Inst., 83, 757-766. All NCEs were dissolved in DMSO and diluted further in culture medium. An aliquot of each dilution was added to the growing cells in 96 well plates and incubated for 48 hours. After incubation, the assay was terminated by adding 50 μL of trichloroacetic acid (TCA) and incubating at 4° C. for 30 min. The precipitated cells were washed and stained with sulphorhodamine B dye for 30 min and the excess dye was washed off with acetic acid. Adsorbed dye was solubilised in Tris base (alkaline pH) and quantitated by measuring the OD at […] in ELISA READER. GI50 (concentration which inhibits the cell growth by 50%) was calculated according to Boyd and Paull, (1995) Drug Dev. Res., 34, 91-109.

Experiment [2] relates to HT29 (colorectal adenocarcinoma). Description: In vitro growth inhibition screen (sulphorhodamine B), HT29. The class given is cell-based, human. The settings on record: HT29 cells, incubated for 48 hours, sulphorhodamine B dye; read-out: GI50 (concentration which inhibits the cell growth by 50%), HT29 Colorectal adenocarcinoma. On the procedure:
as §1

Experiment [3] deals with MCF7 (breast adenocarcinoma). In words: In vitro growth inhibition screen (sulphorhodamine B), MCF7. It is filed as cell-based, human. The settings on record: MCF7 cells, incubated for 48 hours, sulphorhodamine B dye; read-out: GI50 (concentration which inhibits the cell growth by 50%), MCF7 Breast adenocarcinoma. On the procedure: as §1
The test system of experiment [4] is DU145 (prostate carcinoma). Description: In vitro growth inhibition screen (sulphorhodamine B), DU145. It is filed as cell-based, human. As to conditions: DU145 cells, incubated for 48 hours, sulphorhodamine B dye; read-out: GI50 (concentration which inhibits the cell growth by 50%), DU145 Prostate carcinoma. On the procedure:
as §1

The subject of experiment [5] is U251 (human glioblastoma). Description: In vitro growth inhibition screen (sulphorhodamine B), U251. The class given is cell-based. As to conditions: U251 cells, incubated for 48 hours, sulphorhodamine B dye; read-out: GI50 (concentration which inhibits the cell growth by 50%), U251 Human glioblastoma astrocytoma. On the procedure: as §1
Another experiment has as its system LOX (melanoma). Description: In vitro growth inhibition screen (sulphorhodamine B), LOX. The settings on record: LOX cells, incubated for 48 hours, sulphorhodamine B dye; read-out: GI50 (concentration which inhibits the cell growth by 50%), LOX Melanoma. It is filed as cell-based, human. Here is the method: as §1

On to “2,3,4-Tri-O-benzyl-6-(trifluoromethylacetamido)-N-propyl-D-gluco-δ-lactam [Compound No. 51]”, for which the GI50 in experiment [1] is 16 µM; in experiment [2] it was 6.8 µM; in experiment [3] it was 9.9 µM; in experiment [4], 43.7 µM; in experiment [5], 10.3 µM; in the experiment on LOX (melanoma), 13.6 µM.

Regarding “2,3,4-Tri-O-benzyl-6-N-[3-{2-iminocarbonyl aminoethyl)-indolyl]-N-propyl-D-gluco-δ-lactam [Compound No. 78]”, the GI50 in experiment [1] was 29.8 µM; in experiment [2], 33.6 µM; in experiment [3] it was 9.2 µM; in experiment [4], 57.3 µM; in experiment [5] it was 4.3 µM; with LOX (melanoma), 45.1 µM.

Turning to “2,3,4-Tri-O-benzyl-6-N-{[isopropyl]aminocarbonylamino}-1,5-dideoxy-1,5-imino-N-propyl glucitol [Compound No. 38]”, the GI50 is above 380 µM in experiment [1]; 35 µM in experiment [2]; above 380 µM in experiment [3]; 98.4 µM in experiment [4]; above 380 µM in experiment [5]; 281 µM with LOX (melanoma).

As for “6-N-{2-[1,5-Dideoxy-1,5-imino-glucit-6-ol]acetyl}-N-propyl-D-gluco-δ-lactam [Compound No. 67]”, the GI50 in experiment [1] came out at 75.4 µM; in experiment [2], 106 µM; in experiment [3], 107 µM; in experiment [4], 81.6 µM; in experiment [5], 91.5 µM; in the experiment on LOX (melanoma), 67.6 µM.

In the case of `C=CCN1C(=O)[C@H](OCc2ccccc2)[C@@H](OCc2ccccc2)[C@H](OCc2ccccc2)[C@H]1COS(=O)(=O)c1ccc(C)cc1` [Compound No. 1, N-Allyl-6-O-(p-toluenesulphonyl)-2,3,4-tri-O-benzyl-D-gluco-δ-lactam], the GI50 in experiment [1] was above 624 µM; in experiment [2], 203 µM; in experiment [3], 378 µM; in experiment [4] it was 364 µM; in experiment [5], above 624 µM; with LOX (melanoma), above 624 µM.

Regarding `CCCN1C(=O)[C@H](OCc2ccccc2)[C@@H](OCc2ccccc2)[C@H](OCc2ccccc2)[C@H]1CNC(=S)Nc1ccc2ccccc2c1` [Compound No. 2, 2,3,4-Tri-O-benzyl-6-N-{[2-naphthyl]aminothiocarbonylamino}-N-propyl-D-gluco-δ-lactam], the GI50 worked out at 229 µM in experiment [1]; 137 µM in experiment [2]; 175 µM in experiment [3]; 151 µM in experiment [4]; 172 µM in experiment [5]; 40.9 µM in the experiment with LOX (melanoma).

`CCCN1C(=O)C(OCc2ccccc2)C(OCc2ccccc2)C(OCc2ccccc2)C1CNC(=O)Nc1ccc(Cl)cc1` [Compound No. 3, 2,3,4-Tri-O-benzyl-6-N-{[4-chlorophenyl]aminocarbonylamino}-N-propyl-D-gluco-δ-lactam]: the GI50 was 8.2 µM in experiment [1]; 6.1 µM in experiment [2]; 0.8 µM in experiment [3]; 2 µM in experiment [4]; 1.1 µM in experiment [5]; 2.1 µM in the experiment on LOX (melanoma).

For `CCCN1C(=O)C(OCc2ccccc2)C(OCc2ccccc2)C(OCc2ccccc2)C1CNC(=O)Nc1ccc(OC)cc1` [Compound No. 4, 2,3,4-Tri-O-benzyl-6-N-{[p-methoxyphenyl]aminocarbonylamino}-N-propyl-D-gluco-δ-lactam], the GI50 came out at 115 µM in experiment [1]; 49.4 µM in experiment [2]; 13.6 µM in experiment [3]; 116 µM in experiment [4]; 16.8 µM in experiment [5]; 112 µM in the experiment on LOX (melanoma).

For `CCCN1C(=O)C(OCc2ccccc2)C(OCc2ccccc2)C(OCc2ccccc2)C1CNC(=O)Nc1ccc([N+](=O)[O-])cc1` [Compound No. 5, 2,3,4-Tri-O-benzyl-6-N-{[p-nitrophenyl]aminocarbonylamino}-N-propyl-D-gluco-δ-lactam], the GI50 in experiment [1] stood at 33.9 µM; in experiment [2], 14.6 µM; in experiment [3] it was 11.4 µM; in experiment [4], 29.6 µM; in experiment [5] it was 46.9 µM; in the experiment on LOX (melanoma) it was 10.4 µM.
